Common to all, as to experiment: relative viability (nuclei count vs DMSO), 5 days (fraction); higher = more cells survive
Compound in experiment [1]: Cn1cnc2c(F)c(Nc3ccc(Br)cc3Cl)c(C(=O)NOCCO)cc21 [Selumetinib] + O=C(CCCCCCC(=O)Nc1ccccc1)NO [Vorinostat] (partner 1 µM)
The gist of the method: (§1)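 Relative viability is defined as nuclei in treated wells over nuclei in vehicle wells. Duplicate plates were run and medians reported. Lung cancer cell lines in 1536-well plates were dosed by pin tool one day after seeding, with one drug or with a fixed anchor-drug dose plus five library-drug doses (not always all listed) in √10 steps, and nuclei were counted after 5 days.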

Compound in experiment [2]: Cn1cnc2c(F)c(Nc3ccc(Br)cc3Cl)c(C(=O)NOCCO)cc21 [Selumetinib] + CC(=O)Nc1cccc(-n2c(=O)n(C3CC3)c(=O)c3c(Nc4ccc(I)cc4F)n(C)c(=O)c(C)c32)c1 [Trametinib] (partner 0.02 µM)
The gist of the method:
as §1

Compound in experiment [3]: Cn1cnc2c(F)c(Nc3ccc(Br)cc3Cl)c(C(=O)NOCCO)cc21 [Selumetinib] + CS(=O)(=O)N1CCN(Cc2cc3nc(-c4cccc5[nH]ncc45)nc(N4CCOCC4)c3s2)CC1 [Pictilisib] (partner 1 µM)
In outline:
as §1

Compound in experiment [4]: CC1(C)CCC(CN2CCN(c3ccc(C(=O)NS(=O)(=O)c4ccc(NCC5CCOCC5)c([N+](=O)[O-])c4)c(Oc4cnc5[nH]ccc5c4)c3)CC2)=C(c2ccc(Cl)cc2)C1 [Venetoclax] + N=C(N)NC(=N)NCCc1ccccc1 [Phenformin] (partner 250 µM)
In outline:
as §1

Take PC-3 [JPC-3]: the relative viability amounted to 1.02 in experiment [1] (first compound 0.02 µM); 0.663 in experiment [1] (first compound 0.06325 µM); 0.748 in experiment [1] (first compound 0.2 µM); 0.734 in experiment [1] (first compound 0.6325 µM); 0.65 in experiment [2] (first compound 0.02 µM); 0.641 in experiment [2] (first compound 0.06325 µM). In addition, the relative viability turned out to be 0.685 in experiment [2] (first compound 0.2 µM); 0.656 in experiment [2] (first compound 0.6325 µM); 0.711 in experiment [3] (first compound 0.02 µM); 0.718 in experiment [3] (first compound 0.06325 µM); 0.456 in experiment [3] (first compound 0.2 µM); 0.503 in experiment [3] (first compound 0.6325 µM). The relative viability is 0.503 in experiment [4] (first compound 0.01 µM); 0.51 in experiment [4] (first compound 0.03162 µM); 0.487 in experiment [4] (first compound 0.1 µM); 0.468 in experiment [4] (first compound 0.3162 µM); 0.513 in experiment [4] (first compound 1 µM).

On to COR-L 105, for which the relative viability in experiment [1] (first compound 0.02 µM) is 0.779; in experiment [1] (first compound 0.06325 µM) it was 0.829; in experiment [1] (first compound 0.2 µM) it was 0.598; in experiment [1] (first compound 0.6325 µM), 0.47; in experiment [2] (first compound 0.02 µM), 0.435; in experiment [2] (first compound 0.06325 µM) it was 0.427. Also, the relative viability worked out at 0.345 in experiment [2] (first compound 0.2 µM); 0.468 in experiment [2] (first compound 0.6325 µM); 0.342 in experiment [3] (first compound 0.02 µM); 0.312 in experiment [3] (first compound 0.06325 µM); 0.338 in experiment [3] (first compound 0.2 µM); 0.347 in experiment [3] (first compound 0.6325 µM). Also, the relative viability came to 0.583 in experiment [4] (first compound 0.01 µM); 0.462 in experiment [4] (first compound 0.03162 µM); 0.462 in experiment [4] (first compound 0.1 µM); 0.493 in experiment [4] (first compound 0.3162 µM); 0.458 in experiment [4] (first compound 1 µM).

In the case of NCI-H322M, the relative viability amounted to 0.946 in experiment [1] (first compound 0.02 µM); 0.638 in experiment [1] (first compound 0.06325 µM); 0.653 in experiment [1] (first compound 0.2 µM); 0.758 in experiment [1] (first compound 0.6325 µM); 0.458 in experiment [2] (first compound 0.02 µM); 0.508 in experiment [2] (first compound 0.06325 µM). Besides, the relative viability in experiment [2] (first compound 0.2 µM) was determined as 0.496; in experiment [2] (first compound 0.6325 µM), 0.512; in experiment [3] (first compound 0.02 µM), 0.428; in experiment [3] (first compound 0.06325 µM), 0.415; in experiment [3] (first compound 0.2 µM) it was 0.446; in experiment [3] (first compound 0.6325 µM), 0.373. Besides, the relative viability in experiment [4] (first compound 0.01 µM) was 0.781; in experiment [4] (first compound 0.03162 µM) it was 0.793; in experiment [4] (first compound 0.1 µM) it was 0.763; in experiment [4] (first compound 0.3162 µM) it was 0.886; in experiment [4] (first compound 1 µM), 0.803.

As to NCI-H1395, the relative viability in experiment [1] (first compound 0.02 µM) turned out to be 0.761; in experiment [1] (first compound 0.06325 µM), 0.613; in experiment [1] (first compound 0.2 µM), 0.653; in experiment [1] (first compound 0.6325 µM), 0.775; in experiment [2] (first compound 0.02 µM), 1.09; in experiment [2] (first compound 0.06325 µM) it was 0.964. Also, the relative viability in experiment [2] (first compound 0.2 µM) worked out at 0.932; in experiment [2] (first compound 0.6325 µM), 1.05; in experiment [3] (first compound 0.02 µM), 0.598; in experiment [3] (first compound 0.06325 µM), 0.577; in experiment [3] (first compound 0.2 µM), 0.569; in experiment [3] (first compound 0.6325 µM), 0.639. For the same cell line, the relative viability in experiment [4] (first compound 0.01 µM) was 0.45; in experiment [4] (first compound 0.03162 µM), 0.444; in experiment [4] (first compound 0.1 µM) it was 0.405; in experiment [4] (first compound 0.3162 µM) it was 0.473; in experiment [4] (first compound 1 µM), 0.428.

For NCI-H838, the relative viability in experiment [1] (first compound 0.02 µM) is 0.644; in experiment [1] (first compound 0.06325 µM) it was 0.54; in experiment [1] (first compound 0.2 µM), 0.654; in experiment [1] (first compound 0.6325 µM), 0.636; in experiment [2] (first compound 0.02 µM) it was 0.482; in experiment [2] (first compound 0.06325 µM), 0.52. Moreover, the relative viability in experiment [2] (first compound 0.2 µM) worked out at 0.529; in experiment [2] (first compound 0.6325 µM), 0.524; in experiment [3] (first compound 0.02 µM), 0.458; in experiment [3] (first compound 0.06325 µM), 0.314; in experiment [3] (first compound 0.2 µM), 0.321; in experiment [3] (first compound 0.6325 µM), 0.339. Also, the relative viability in experiment [4] (first compound 0.01 µM) stood at 0.63; in experiment [4] (first compound 0.03162 µM), 0.591; in experiment [4] (first compound 0.1 µM) it was 0.448; in experiment [4] (first compound 0.3162 µM), 0.636; in experiment [4] (first compound 1 µM), 0.507.

On to NCI-H1993, for which the relative viability in experiment [1] (first compound 0.02 µM) was found to be 0.85; in experiment [1] (first compound 0.06325 µM) it was 0.6; in experiment [1] (first compound 0.2 µM), 0.597; in experiment [1] (first compound 0.6325 µM), 0.612; in experiment [2] (first compound 0.02 µM), 0.624; in experiment [2] (first compound 0.06325 µM) it was 0.604. The relative viability in experiment [2] (first compound 0.2 µM) was determined as 0.527; in experiment [2] (first compound 0.6325 µM), 0.528; in experiment [3] (first compound 0.02 µM), 0.945; in experiment [3] (first compound 0.06325 µM) it was 0.815; in experiment [3] (first compound 0.2 µM), 0.866; in experiment [3] (first compound 0.6325 µM), 0.807. Also, the relative viability is 0.603 in experiment [4] (first compound 0.01 µM); 0.494 in experiment [4] (first compound 0.03162 µM); 0.473 in experiment [4] (first compound 0.1 µM); 0.48 in experiment [4] (first compound 0.3162 µM); 0.528 in experiment [4] (first compound 1 µM).

Consider CAL-12T, for which the relative viability in experiment [1] (first compound 0.02 µM) was 0.81; in experiment [1] (first compound 0.06325 µM), 0.724; in experiment [1] (first compound 0.2 µM) it was 0.569; in experiment [1] (first compound 0.6325 µM) it was 0.507; in experiment [2] (first compound 0.02 µM), 0.282; in experiment [2] (first compound 0.06325 µM), 0.343. In addition, the relative viability in experiment [2] (first compound 0.2 µM) amounted to 0.285; in experiment [2] (first compound 0.6325 µM), 0.298; in experiment [3] (first compound 0.02 µM), 0.415; in experiment [3] (first compound 0.06325 µM), 0.394; in experiment [3] (first compound 0.2 µM), 0.408; in experiment [3] (first compound 0.6325 µM), 0.395. Besides, the relative viability in experiment [4] (first compound 0.01 µM) was determined as 0.543; in experiment [4] (first compound 0.03162 µM), 0.575; in experiment [4] (first compound 0.1 µM), 0.567; in experiment [4] (first compound 0.3162 µM), 0.555; in experiment [4] (first compound 1 µM) it was 0.539.

Take LCLC-97TM1: the relative viability in experiment [1] (first compound 0.02 µM) amounted to 0.925; in experiment [1] (first compound 0.06325 µM), 0.714; in experiment [1] (first compound 0.2 µM), 0.661; in experiment [1] (first compound 0.6325 µM), 0.437; in experiment [2] (first compound 0.02 µM), 0.195; in experiment [2] (first compound 0.06325 µM), 0.171. For the same cell line, the relative viability in experiment [2] (first compound 0.2 µM) came out at 0.201; in experiment [2] (first compound 0.6325 µM), 0.19; in experiment [3] (first compound 0.02 µM), 0.212; in experiment [3] (first compound 0.06325 µM), 0.161; in experiment [3] (first compound 0.2 µM), 0.158; in experiment [3] (first compound 0.6325 µM) it was 0.125. The relative viability in experiment [4] (first compound 0.01 µM) came out at 0.463; in experiment [4] (first compound 0.03162 µM) it was 0.494; in experiment [4] (first compound 0.1 µM), 0.461; in experiment [4] (first compound 0.3162 µM), 0.449; in experiment [4] (first compound 1 µM) it was 0.385.

The record behind these values is the supplement of paper PMC10307832.
